Test systems include DLD-1; XF498; SNB-78; KM-20L2; HOP-18; DMS-114; M19-MEL; LXFL 529; RXF 631.
Common to all, as to experiment: inhibition of tumour cell growth, NCI panel, 48 h

Structures are written as SMILES.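 Growth conditions: 96-well plates. Treatment: test compound, 48 hours, 5 concentrations. Analysis: linear interpolation between bracketing concentrations; unreached endpoints set to highest concentration. Here, GI50 denotes the concentration required for 50% inhibition of growth.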 Active and inactive are the calls of the source. Rule as the data show it: active = GI50 up to about 1.1 µM and inactive = higher.

Turning to `CCC(=O)OC1CCn2c1nc1c2C(=O)C(C)=C(NC(C)=O)C1=N` (stereo unspecified), the GI50 with DLD-1 was 1.42 µM (inactive); in the test with XF498 it was 2.65 µM (inactive); in the test with SNB-78, 2.6 µM (inactive); in the test with KM-20L2, 1.73 µM (inactive); in the test with HOP-18, 1.8 µM (inactive); in the test with DMS-114, 1.5 µM (inactive). In the test on M19-MEL, the GI50 is 0.186 µM (active).
As to `Cn1cnc([N+](=O)[O-])c1Sc1nccn1-c1cccc2ccccc12`, the GI50 in the test with LXFL 529 is 18.5 µM (inactive); with DLD-1, 24.2 µM (inactive); in the test on XF498, 16.6 µM (inactive); with SNB-78, 24.7 µM (inactive); in the test on KM-20L2 it was 64.1 µM (inactive); with HOP-18, 2.52 µM (inactive). In addition, the GI50 with RXF 631 is 22.3 µM (inactive); in the test with DMS-114 it was 22 µM (inactive); in the test with M19-MEL, 25.7 µM (inactive).
`CCN(CC)C(=S)SCC(=O)Nc1nc2c(s1)CCCC2`: the GI50 in the test on LXFL 529 is 47.2 µM (inactive); with DLD-1, 94 µM (inactive); with XF498, 18.7 µM (inactive); in the test on SNB-78, > 100 µM (inactive); in the test with KM-20L2, > 100 µM (inactive); with DMS-114, 67.8 µM (inactive). In addition, in the test with M19-MEL, the GI50 is 52.7 µM (inactive).
Regarding `Cn1cc2ccccc2c1-c1nc(F)nc(OCC(=O)[C@H]2CCC3[C@@H]4CCC5=CC(=O)CC[C@]5(C)C4[C@@H](O)C[C@@]32C)n1` (stereo partly specified), the GI50 was 3.72 µM (inactive) in the test on LXFL 529; 8.89 µM (inactive) with DLD-1; 8.65 µM (inactive) in the test with XF498; 13.2 µM (inactive) in the test on SNB-78; 26.1 µM (inactive) in the test on KM-20L2; 15.5 µM (inactive) in the test on HOP-18. In addition, the GI50 is 2.33 µM (inactive) with RXF 631, 7.52 µM (inactive) in the test on DMS-114 and 4.34 µM (inactive) with M19-MEL.
Take `O=C1CC[C@@H](S(=O)(=O)c2ccccc2)[C@H](/C=C/c2ccccc2)O1`: the GI50 in the test with LXFL 529 was > 100 µM (inactive); with XF498, < 0.01 µM (active); in the test with KM-20L2 it was > 10 µM (inactive); in the test on HOP-18 it was > 100 µM (inactive); in the test with DMS-114, > 100 µM (inactive); in the test with M19-MEL, > 100 µM (inactive).
Take `CN(C)CCS/C(=N\c1ccccc1)N1C=COC=C1`: the GI50 was 16.4 µM (inactive) in the test with LXFL 529; 17.4 µM (inactive) in the test with DLD-1; 31.2 µM (inactive) with XF498; 26.9 µM (inactive) with SNB-78; 47.1 µM (inactive) in the test on KM-20L2; 59.8 µM (inactive) with HOP-18. Moreover, the GI50 in the test on DMS-114 was 14.6 µM (inactive); in the test with M19-MEL, 17.5 µM (inactive).
Regarding `COc1ccc2occ(CCC(=O)O)c2c1`, the GI50 in the test with LXFL 529, in the test on DLD-1, in the test with XF498, in the test on SNB-78, in the test on KM-20L2 and with HOP-18 was > 100 µM (inactive) throughout. Besides, the GI50 in the test on DMS-114 and with M19-MEL was > 100 µM (inactive) throughout.
In the case of `Cc1cccc(C)c1NC(=O)CCC/C(CC(=O)c1ccc(F)cc1)=N\NC(=O)C(=O)NN`, the GI50 with LXFL 529, in the test on DLD-1, in the test on XF498, with SNB-78, in the test on KM-20L2 and with HOP-18 was > 100 µM (inactive) in each case. The GI50 in the test on RXF 631, in the test with DMS-114 and in the test with M19-MEL was > 100 µM (inactive) in each case.
`NC(=O)c1ccccc1NC(=O)C(=O)C(C(=O)c1ccc(Cl)c(Cl)c1)C1OC(=O)c2ccccc21` (stereo unspecified): the GI50 with LXFL 529 was 29.9 µM (inactive); in the test on DLD-1 it was 43.3 µM (inactive); in the test on XF498 it was > 100 µM (inactive); with SNB-78, 39.2 µM (inactive); in the test with KM-20L2, 46.9 µM (inactive); with HOP-18 it was 33.5 µM (inactive).
With `O=C(/C=C/c1ccc([N+](=O)[O-])o1)N1CCN(Cc2ccccc2)CC1`, the GI50 was 6.56 µM (inactive) with LXFL 529; 5.96 µM (inactive) with DLD-1; 16.7 µM (inactive) in the test with XF498; 17.1 µM (inactive) in the test with SNB-78; 10.9 µM (inactive) in the test on KM-20L2; 22.6 µM (inactive) in the test with HOP-18. In addition, the figures for the GI50 in the test on DMS-114 and in the test on M19-MEL were 12.2 µM (inactive) and 6.43 µM (inactive), respectively.
Consider `Nc1nc2c(c(=O)[nH]1)NC(CO)CN2` (stereo unspecified), for which the GI50 in the test on DLD-1 is > 100 µM (inactive); in the test with XF498 it was 84.9 µM (inactive); in the test on HOP-18, > 100 µM (inactive); in the test with DMS-114, 66.8 µM (inactive); in the test with M19-MEL it was 63.2 µM (inactive).
Regarding `Cc1ccc(C)c(NC(=O)CCc2n[nH]c(=S)o2)c1`, the GI50 in the test on LXFL 529, in the test on DLD-1, in the test with XF498, with SNB-78, with KM-20L2 and in the test on HOP-18 was > 100 µM (inactive) each time. Moreover, the GI50 in the test on RXF 631, in the test with DMS-114 and in the test with M19-MEL was > 100 µM (inactive) throughout.
`C=C(COC(C)=O)CC(/C=C(\C)CC/C=C(\C)CO)OC(C)=O` (stereo unspecified): the GI50 with LXFL 529, with DLD-1, in the test on XF498, with SNB-78, with KM-20L2 and in the test on RXF 631 was > 100 µM (inactive) throughout. Also, in the test with M19-MEL, the GI50 was > 100 µM (inactive).
As to `COc1ccc2[nH]c3c4c(cc(-c5ccccc5)c3c2c1)C(=O)N(c1ccccc1)C4=O`, the GI50 in the test with LXFL 529 is 18.1 µM (inactive); in the test with DLD-1, > 53 µM (inactive); in the test on SNB-78, 27.2 µM (inactive); in the test on KM-20L2, > 100 µM (inactive); in the test on HOP-18, 24.7 µM (inactive); with DMS-114, > 47.8 µM (inactive). Besides, the GI50 in the test with M19-MEL is 30.5 µM (inactive).
Turning to `COc1cc2c(c(OC)c1)C(=O)C(=O)C(CC1(C)OCCCO1)=C2`, the GI50 in the test on LXFL 529 is 4.51 µM (inactive); with DLD-1, 2.93 µM (inactive); in the test with XF498, 12.8 µM (inactive); in the test on SNB-78, 9.95 µM (inactive); with KM-20L2, 17.9 µM (inactive); with HOP-18, 10.4 µM (inactive). Also, the GI50 in the test on RXF 631 is 17.4 µM (inactive); in the test with DMS-114, 3.59 µM (inactive); with M19-MEL, 2.32 µM (inactive).
In the case of `COc1cccc(NC(=O)CC(=O)N2N=C(n3ccc4ccccc43)CC2c2ccccc2)c1` (stereo unspecified), the GI50 in the test with LXFL 529, with DLD-1, in the test with SNB-78, with KM-20L2, with HOP-18 and with DMS-114 was > 100 µM (inactive) throughout. Besides, the GI50 in the test on M19-MEL is > 100 µM (inactive).
Take `CCOC(=O)/C(C#N)=C(O)/C(=C\c1ccc(Br)cc1)NC(=O)c1ccccc1`: the GI50 with LXFL 529, in the test on DLD-1, in the test on SNB-78, with KM-20L2, in the test with HOP-18 and in the test on RXF 631 was > 100 µM (inactive) throughout. The GI50 in the test on DMS-114 and in the test with M19-MEL was > 100 µM (inactive) throughout.
For the compound `COC(=O)c1c2cccccc-2c(Cc2c3cccccc-3c(C(=O)OC)c2O)c1O`, the GI50 in the test with DLD-1, in the test on XF498, in the test with SNB-78, in the test on KM-20L2, with HOP-18 and in the test with DMS-114 was > 100 µM (inactive) in each case. In addition, the GI50 in the test on M19-MEL was > 100 µM (inactive).
As to `CC1Cc2c(N)nc(NN)nc2NC1=O` (stereo unspecified), the GI50 in the test with DLD-1 is > 100 µM (inactive); in the test on XF498 it was 3.94 µM (inactive); in the test with KM-20L2 it was > 100 µM (inactive); in the test on HOP-18, > 100 µM (inactive); with DMS-114, > 100 µM (inactive); with M19-MEL, > 100 µM (inactive).
`CC(=O)N1CC(=O)NC1=S`: the GI50 in the test with LXFL 529, with DLD-1, in the test on XF498, in the test on SNB-78, in the test with KM-20L2 and in the test with DMS-114 was > 100 µM (inactive) in each case. Also, in the test with M19-MEL, the GI50 is > 100 µM (inactive).
In the case of `CC(=O)c1cccc(NC2C(N)C(NC(=O)N(C)C)(C(C)O)C(C)(O)C2(O)COC(=O)c2c(C)cccc2O)c1` (stereo unspecified), the GI50 in the test with LXFL 529, in the test on SNB-78, in the test with KM-20L2, with DMS-114 and in the test with M19-MEL was 0.01 µM (active) each time.
`Nc1nc(Cl)cc(NCCCCCNc2cc(Cl)nc(N)n2)n1`: the GI50 was 26.9 µM (inactive) in the test on LXFL 529; > 100 µM (inactive) with DLD-1; 31.3 µM (inactive) in the test with SNB-78; > 100 µM (inactive) with KM-20L2; > 100 µM (inactive) in the test with HOP-18; > 100 µM (inactive) in the test on RXF 631.
Regarding `CCOc1cc2c(cc1OC)c[n+](C)c1c3cc(OC)c(OC)cc3ccc21`, the GI50 is 27 µM (inactive) with LXFL 529; > 78.2 µM (inactive) in the test on DLD-1; > 57 µM (inactive) with SNB-78; > 100 µM (inactive) with KM-20L2; > 48.6 µM (inactive) in the test with HOP-18; 22.6 µM (inactive) in the test with RXF 631. Moreover, the GI50 was 18.2 µM (inactive) in the test with DMS-114 and > 56.1 µM (inactive) in the test on M19-MEL.
As to `O=C(O)C1=NN=C(C(=O)O)NN1`, the GI50 in the test on LXFL 529, with DLD-1, in the test on SNB-78, with KM-20L2, in the test on HOP-18 and in the test with M19-MEL was > 100 µM (inactive) in each case.
Regarding `CC[N+](C)(CC)CC(C)(C)C(=O)/C=C/c1ccc(/C=C/C(=O)C(C)(C)C[N+](C)(CC)CC)cc1`, the GI50 with LXFL 529, in the test on DLD-1, with SNB-78, with KM-20L2, in the test with RXF 631 and with DMS-114 was > 100 µM (inactive) in each case. Further, the GI50 with M19-MEL is > 100 µM (inactive).
